Data set [1] deals with L. braziliensis-infected macrophages. As to the kind of experiment: ROS levels in Leishmania-infected macrophages (H2DCFDA). Type of data set: cell-based, Leishmania braziliensis. The conditions noted are these: 5.0 µg/mL, 48 h at 37 °C. As for the experimental part:
Macrophages (1 × 10^6 cells/mL) were incubated in 96-well culture plates (Nunc, Nunclon, Roskilde, Denmark) and infected with L. braziliensis promastigotes (at a ratio of 10 parasites per cell). The infected macrophages were either left untreated or treated with Compound 28 (at a concentration of 5.0 µg/mL) for 48 h at 37 °C in 5% CO2. The cells were washed with PBS and incubated with 20 μmol/L H2DCFDA (Molecular Probes, Eugene, Oregon, USA) for 30 min in the dark. The fluorescence intensity was measured using a spectrofluorometer (FLx800; BioTek Instruments, Winooski, VT, USA) at 485 nm excitation and 528 nm emission. As a positive control, the infected macrophages were incubated with H2O2 at a concentration of 0.02 µg/mL (0.5 µmol/L). Parasites that were untreated with Compound 28 and not labeled with the fluorescent probe were used as the sample blank.
Figure 3 Production of ROS in L. braziliensis-infected macrophages treated with Compound 28. Leishmania braziliensis-infected macrophages (1 × 10^5 cells) were incubated with Compound 28 (5.0 µg/mL) for 48 h at 37 °C in a 5% CO2 environment. Subsequently, 2′,7′-dichlorodihydrofluorescein diacetate (H2DCFDA, 9.7 μg/mL) was added for 30 min under dark conditions. The fluorescence levels were measured in a spectrofluorometer at 485/528 nm. H2O2 (0.5 µmol/L) was used as a positive control. […]

For data set [2], the system named is L. braziliensis promastigotes infecting murine macrophages. As to the kind of experiment: Inhibition of infection (parasites pre-incubated with compound, then used to infect macrophages). Type of data set: cell-based, Leishmania braziliensis. The settings on record: for Number of Amastigotes per Cell using pre-incubated parasites: untreated 8.9; for Percentage of Infected Macrophages Using Pre-Incubated Parasites: untreated 90.5. As for the experimental part:
To evaluate the inhibition of infection, promastigotes (5 × 10^6 cells) were first incubated with Compound 28 or AmpB (0, 1.0, 2.5 and 5.0 µg/mL in both cases) for 4 h at 24 °C; these were then used to infect murine macrophages (at a ratio of 10 parasites per macrophage) and incubated for 24 h at 37 °C in 5% CO2. Then, cells were fixed with 4% paraformaldehyde, washed, and stained with Giemsa. The percentage of infected macrophages and the number of recovered amastigotes were determined by counting 200 cells, in triplicate, using an optical microscope.

For data set [3], the system named is Leishmania braziliensis axenic amastigotes. As to the kind of experiment: In vitro antileishmanial activity against axenic amastigotes (MTT). The data set is classed as cell-based. As for the experimental part:
To obtain the axenic amastigotes, 1 × 10^9 stationary promastigotes were washed three times in sterile phosphate-buffered saline (PBS) and incubated in 5 mL FBS for 48 h at 37 °C. Parasites were washed with cold PBS, and their morphology was evaluated with an optical microscope after Giemsa staining as previously described.
The in vitro antileishmanial activity was evaluated by incubating the promastigotes or axenic amastigotes (1 × 10^6 cells/well) with the 24 synthetic derivatives (Compounds 5–28; 0 to 600 µg/mL) in 96-well culture plates (Nunc, Nunclon, Roskilde, Denmark) for 48 h at 24 °C. Due to the difficulty in obtaining a high concentration of murine macrophages, the cytotoxicity experiment was evaluated by incubating such cells (5 × 10^5 per mL) with Compound 28 (0 to 600 µg/mL), which presented the best antileishmanial activity, for 48 h at 37 °C in a 5% CO2 environment. AmpB (0 to 10 µg/mL; Sigma-Aldrich, St. Louis, MO, USA) was used as a positive control in both experiments. The cell viability was assessed using the 3-(4.5-dimethylthiazol-2-yl)-2.5-diphenyl tetrazolium bromide (MTT, Sigma-Aldrich, St. Louis, MO, USA) method. The optical density (OD) values were read using a microplate spectrophotometer (Molecular Devices, Spectra Max Plus, San Jose, CA, USA) at 570 nm. Results were entered into Microsoft Excel (version 10.0) spreadsheets, and the 50% Leishmania and macrophage inhibitory concentrations (IC50 and CC50, respectively) were calculated by applying a sigmoidal regression of the dose–response curve. The SI was calculated by dividing the CC50 with the respective IC50 values.

The test system of data set [4] is L. braziliensis promastigotes. Kind of data set: ROS production in promastigotes (H2DCFDA). Type of data set: cell-based, Leishmania braziliensis. The conditions noted are these: one IC50 value, 48 h at 24 °C. The method, then:
After treatment with Compound 28 (at a concentration corresponding to one IC50 value) for 48 h at 24 °C, L. braziliensis promastigotes were washed with PBS, and the parasite concentration was adjusted to 3 × 10^6 cells per well. H2DCFDA (Sigma-Aldrich, St. Louis, MO, USA) was then added and incubated for 30 min in the dark, and samples were read in a fluorometric microplate reader (FLx800, BioTek Instruments, Winooski, VT, USA) with excitation and emission wavelengths of 485 and 528 nm, respectively. Parasites that were untreated or treated with Compound 28 and not labeled with the fluorescent probe were used as the blank.
Figure 4 ΔΨm and ROS production in Leishmania after exposure to Compound 28. Leishmania braziliensis promastigotes were not exposed (negative control) or exposed to Compound 28 (at a concentration corresponding to the IC50 value) for 48 h. (A) Depolarization of ΔΨm was evaluated using the JC-1 fluorescent probe. Samples were analyzed fluorometrically, and the results are expressed as the ratio of red/green fluorescence. FCCP ([…]) was used as a positive control. (B) ROS production was evaluated using the H2DCFDA probe. The fluorescence intensity was measured by fluorimetry, and the results are expressed as the fold increase in the ROS level compared with the non-treated control. H2O2-treated parasites were used as a positive control. […]

[5] abbreviates: parasites pre-incubated with 1.0 µg/mL at 24 °C.
Where [6] appears, read: parasites pre-incubated with 2.5 µg/mL at 24 °C.
[7] abbreviates: parasites pre-incubated with 5.0 µg/mL at 24 °C.

Values after ≈ are worked out from the molar mass of the structure shown.

The molecule `CCN(CC)c1ccc2cc(-n3cc(CNC(=O)/C=C/c4ccc(OC)c(OC)c4)nn3)c(=O)oc2c1` [Compound 28, N-((1-(7-(diethylamino)-2-oxo-2H-chromen-3-yl)-1H-1,2,3-triazol-4-yl)methyl) (3,4-dimethoxy) cinnamide] showed a melting point of 197 to 198.4 °C. Moreover, in data set [1], the “Increase in ROS levels in treated and infected cells compared with untreated cells” value is on record as 44.1%. Further, in data set [2] (setting [5]), the “Number of Amastigotes per Cell using pre-incubated parasites” value (from here on “Number of Amastigotes per Cell”) is 5.8 and the “Percentage of Infected Macrophages Using Pre-Incubated Parasites” value (shortened to “Percentage”) is 84.5%. In data set [2] (setting [6]), the “Number of Amastigotes per Cell” value came to 4.9 and the “Percentage” value is reported as 80.5%. In addition, in data set [2] (setting [7]), the “Number of Amastigotes per Cell” value was 3.6 and the “Percentage” value was 71.5%. Also, the “IC50 Axenic Amastigotes” value in data set [3] (48 h at 24 °C, MTT, mean ± standard deviation) came out at 87.8 ± 9.7 µg/mL (≈ 174 µM). The “Selectivity index (SI), ratio CC50/IC50, axenic amastigotes” value in data set [3] (CC50 murine macrophages / IC50 axenic amastigotes) turned out to be 13.3. In data set [3] (Leishmania braziliensis, 48 h, 48 h at 24 °C, MTT, mean ± standard deviation), this molecule registered an IC50 of 88 ± 9.7 µg/mL (≈ 175 µM). The “Fold increase in ROS production compared with untreated parasites” value in data set [4] was 2.5 fold.

The values are drawn from publication PMC10459042, “Synthesis of 1,2,3-Triazole-Containing Methoxylated Cinnamides and Their Antileishmanial Activity against the Leishmania braziliensis Species” (Pharmaceuticals, 2023).
